Results as given in the NIST ThermoML archive (doi:10.1021/acs.jced.8b01097).

Experiment: xn = mol fraction of the nth substance listed
Conditions: 85 kPa, Liquid; for viscosity: Concentric cylinders viscometry; for mass density: Vibrating tube method

CCC(C)O (stereo not drawn) [butan-2-ol] + CCCO
Conditions	mass density [kg/m3]	viscosity [mPa·s]
293.15 K, x1 = 0.0818	804.1	2.323
293.15 K, x1 = 0.1601	804.6	2.428
293.15 K, x1 = 0.2399	805	2.54
293.15 K, x1 = 0.3499	805.5	2.702
293.15 K, x1 = 0.4399	805.8	2.838
293.15 K, x1 = 0.56	806	3.023
293.15 K, x1 = 0.6515	806.1	3.166
293.15 K, x1 = 0.7385	806.2	3.304
293.15 K, x1 = 0.85	806.3	3.486
293.15 K, x1 = 0.9407	806.3	3.639
293.15 K, x1 = 1	806.2	3.743
298.15 K, x1 = 0.0818	800.1	2.047
298.15 K, x1 = 0.1601	800.6	2.126
298.15 K, x1 = 0.2399	801	2.211
298.15 K, x1 = 0.3499	801.5	2.331
298.15 K, x1 = 0.4399	801.8	2.432
298.15 K, x1 = 0.56	802	2.57
298.15 K, x1 = 0.6515	802.1	2.676
298.15 K, x1 = 0.7385	802.2	2.778
298.15 K, x1 = 0.85	802.2	2.913
298.15 K, x1 = 0.9407	802.1	3.025
298.15 K, x1 = 1	802	3.101
303.15 K, x1 = 0.0818	796.1	1.824
303.15 K, x1 = 0.1601	796.7	1.893
303.15 K, x1 = 0.2399	797.1	1.962
303.15 K, x1 = 0.3499	797.6	2.057
303.15 K, x1 = 0.4399	797.9	2.134
303.15 K, x1 = 0.56	798.1	2.228
303.15 K, x1 = 0.6515	798.2	2.31
303.15 K, x1 = 0.7385	798.2	2.38
303.15 K, x1 = 0.85	798.2	2.466
303.15 K, x1 = 0.9407	798.1	2.536
303.15 K, x1 = 1	797.9	2.579
308.15 K, x1 = 0.0818	792.1	1.619
308.15 K, x1 = 0.1601	792.7	1.672
308.15 K, x1 = 0.2399	793.1	1.724
308.15 K, x1 = 0.3499	793.6	1.795
308.15 K, x1 = 0.4399	793.8	1.851
308.15 K, x1 = 0.56	794	1.925
308.15 K, x1 = 0.6515	794.1	1.98
308.15 K, x1 = 0.7385	794.1	2.03
308.15 K, x1 = 0.85	794	2.089
308.15 K, x1 = 0.9407	793.8	2.135
308.15 K, x1 = 1	793.6	2.162
313.15 K, x1 = 0.0818	788.1	1.444
313.15 K, x1 = 0.1601	788.7	1.485
313.15 K, x1 = 0.2399	789.1	1.525
313.15 K, x1 = 0.3499	789.6	1.58
313.15 K, x1 = 0.4399	789.8	1.622
313.15 K, x1 = 0.56	789.9	1.676
313.15 K, x1 = 0.6515	789.9	1.713
313.15 K, x1 = 0.7385	789.8	1.747
313.15 K, x1 = 0.85	789.7	1.786
313.15 K, x1 = 0.9407	789.5	1.814
313.15 K, x1 = 1	789.2	1.828
318.15 K, x1 = 0.0818	784	1.293
318.15 K, x1 = 0.1601	784.6	1.326
318.15 K, x1 = 0.2399	785.1	1.358
318.15 K, x1 = 0.3499	785.5	1.398
318.15 K, x1 = 0.4399	785.7	1.429
318.15 K, x1 = 0.56	785.8	1.467
318.15 K, x1 = 0.6515	785.7	1.493
318.15 K, x1 = 0.7385	785.6	1.516
318.15 K, x1 = 0.85	785.3	1.54
318.15 K, x1 = 0.9407	785.1	1.555
318.15 K, x1 = 1	784.7	1.559
323.15 K, x1 = 0.0818	779.9	1.16
323.15 K, x1 = 0.1601	780.5	1.185
323.15 K, x1 = 0.2399	781	1.209
323.15 K, x1 = 0.3499	781.4	1.24
323.15 K, x1 = 0.4399	781.5	1.263
323.15 K, x1 = 0.56	781.5	1.29
323.15 K, x1 = 0.6515	781.4	1.308
323.15 K, x1 = 0.7385	781.3	1.322
323.15 K, x1 = 0.85	781	1.336
323.15 K, x1 = 0.9407	780.6	1.341
323.15 K, x1 = 1	780.2	1.318

NCCCO [3-amino-1-propanol] + CCC(C)O
Conditions	mass density [kg/m3]	viscosity [mPa·s]
293.15 K, x2 = 0	987.8	37.33
293.15 K, x2 = 0.081	971.2	30.36
293.15 K, x2 = 0.1607	955.5	25.31
293.15 K, x2 = 0.2395	940.2	20.96
293.15 K, x2 = 0.3499	919.3	15.85
293.15 K, x2 = 0.4394	902.8	12.63
293.15 K, x2 = 0.5602	881	9.361
293.15 K, x2 = 0.658	863.9	7.574
293.15 K, x2 = 0.7408	849.7	6.103
293.15 K, x2 = 0.8511	830.9	4.795
293.15 K, x2 = 0.9396	816.2	4.079
298.15 K, x2 = 0	984.3	28.59
298.15 K, x2 = 0.081	967.8	23.43
298.15 K, x2 = 0.1607	951.9	19.73
298.15 K, x2 = 0.2395	936.6	16.46
298.15 K, x2 = 0.3499	915.6	12.59
298.15 K, x2 = 0.4394	899	10.15
298.15 K, x2 = 0.5602	877.2	7.634
298.15 K, x2 = 0.658	860	6.253
298.15 K, x2 = 0.7408	845.7	5.076
298.15 K, x2 = 0.8511	827	4.016
298.15 K, x2 = 0.9396	812.2	3.403
303.15 K, x2 = 0	980.3	22.31
303.15 K, x2 = 0.081	964	18.39
303.15 K, x2 = 0.1607	948.1	15.6
303.15 K, x2 = 0.2395	932.7	13.11
303.15 K, x2 = 0.3499	911.6	10.15
303.15 K, x2 = 0.4394	895	8.261
303.15 K, x2 = 0.5602	873.2	6.309
303.15 K, x2 = 0.658	856	5.213
303.15 K, x2 = 0.7408	841.7	4.261
303.15 K, x2 = 0.8511	823	3.377
303.15 K, x2 = 0.9396	808.2	2.853
308.15 K, x2 = 0	976.2	17.67
308.15 K, x2 = 0.081	959.9	14.66
308.15 K, x2 = 0.1607	944.2	12.51
308.15 K, x2 = 0.2395	928.7	10.58
308.15 K, x2 = 0.3499	907.6	8.29
308.15 K, x2 = 0.4394	890.9	6.808
308.15 K, x2 = 0.5602	869	5.251
308.15 K, x2 = 0.658	851.9	4.371
308.15 K, x2 = 0.7408	837.6	3.604
308.15 K, x2 = 0.8511	818.9	2.866
308.15 K, x2 = 0.9396	803.9	2.411
313.15 K, x2 = 0	972.3	14.21
313.15 K, x2 = 0.081	956.1	11.85
313.15 K, x2 = 0.1607	940.2	10.16
313.15 K, x2 = 0.2395	924.9	8.658
313.15 K, x2 = 0.3499	903.7	6.856
313.15 K, x2 = 0.4394	886.9	5.676
313.15 K, x2 = 0.5602	865	4.422
313.15 K, x2 = 0.658	847.8	3.715
313.15 K, x2 = 0.7408	833.5	3.07
313.15 K, x2 = 0.8511	814.7	2.446
313.15 K, x2 = 0.9396	799.6	2.053
318.15 K, x2 = 0	968.5	11.58
318.15 K, x2 = 0.081	952.4	9.715
318.15 K, x2 = 0.1607	936.6	8.364
318.15 K, x2 = 0.2395	921.1	7.173
318.15 K, x2 = 0.3499	899.8	5.733
318.15 K, x2 = 0.4394	882.9	4.781
318.15 K, x2 = 0.5602	860.9	3.758
318.15 K, x2 = 0.658	843.6	3.174
318.15 K, x2 = 0.7408	829.3	2.634
318.15 K, x2 = 0.8511	810.4	2.103
318.15 K, x2 = 0.9396	795.2	1.76
323.15 K, x2 = 0	964.9	9.546
323.15 K, x2 = 0.081	948.9	8.057
323.15 K, x2 = 0.1607	933	6.971
323.15 K, x2 = 0.2395	917.5	6.012
323.15 K, x2 = 0.3499	896.1	4.85
323.15 K, x2 = 0.4394	879.2	4.064
323.15 K, x2 = 0.5602	857	3.228
323.15 K, x2 = 0.658	839.7	2.731
323.15 K, x2 = 0.7408	825.2	2.275
323.15 K, x2 = 0.8511	806.1	1.82
323.15 K, x2 = 0.9396	790.8	1.519
